Reference: US20140314857A1, “FORMULATIONS FOR ENHANCED BIOAVAILABILITY OF ZANAMIVIR” (priority 2012, published 2014)
Several values for one entry are separate records, joined by “and”; a condition that tells them apart may be missing. Identical values can stand only once.

Experiments:
[1] = Varying zanamivir levels at fixed 50 µL Capmul MCM L8, intraduodenal administration; type: in vivo, male Sprague-Dawley rats; conditions: male, Sprague-Dawley, rat, plasma, ID
Source text: (§1) Male Sprague-Dawley rats (Hilltop Labs), 3 animals per treatment group, 250-350 grams in weight, were fitted with a jugular vein cannula (JVC). Animals intended for intraduodenal dosing were also fitted with one or more intraduodenal cannula (IDC) and those intended for intravenous dosing were fitted with a second JVC. Food was withheld from the animals for a minimum of twelve hours prior to test article administration and was returned approximately four hours post-dose. Water was supplied ad libitum.
(§2) Intravenous dosing was conducted by the injection of 1.5 mg of zanamivir in 200 μL of PBS through a JVC. For some experiments, the absorption enhancer was administered intraduodenally 2 hr prior to administering 1.5 mg of zanamivir in PBS through a second IDC. Each intraduodenal dose was followed with the introduction of a small air bubble (˜10 μL) in the cannula followed by a flush of 125 μL of PBS to ensure the dose was given in full. The volume of PBS used for cannula flush was consistent across the treatment groups. The cannula was tied to prevent the PBS remaining in the cannula from entering the duodenum.
(§3) Blood samples collected via the JVC, approximately 400 μL each, were obtained at 2 min, 5 min, 15 min, 30 min, 60 min, 90 min, and 120 min, with sodium heparin used as an anti-coagulant. Each sample was placed into a chilled tube containing the anticoagulant and kept on ice until centrifugation at 4° C., 3,000×g, for 5 min. The plasma supernatants were stored at −70° C. until LC-MS analysis.

Caco-2 cell monolayers = experiment: Unidirectional (A-to-B) permeability of zanamivir across Caco-2 cell monolayers with and without excipients; type: in vitro ADME; conditions: vs no enhancer
Protocol: Caco-2 cells were obtained from American Type Culture Collection (Rockville, Md.). Stock cultures were maintained in flasks with DMEM medium supplemented with 10% FBS, 1% non-essential amino acids, 1 mmol/L sodium pyruvate, 100 IU/mL penicillin, and 100 μg/mL streptomycin in a humidified incubator (37° C., 5% CO2). Cells were harvested by trypsinization and seeded at 60,000 cells/cm^2 onto Costar Transwell® 12-well dual-chamber plates with collagen-coated, microporous polycarbonate membranes (1.13 cm^2 insert area, 0.4 μm pore size; Corning Life Sciences, Acton, Mass.) for permeability studies. The culture medium was changed three times per week. […]
Unidirectional (A-to-B) permeability of zanamivir was determined at 15 μg/mL in the absence and presence of varying concentrations of excipients in Caco-2 cell monolayers. […]
Assays were conducted by seeding approximately 68,000 viable Caco-2 cells in 1.12 cm^2 Costar Transwell inserts (12-well format, 0.4 micron pore size PET membranes) in Dulbecco's Modified Eagles Medium (high glucose) supplemented with 20% fetal bovine serum, glutamine, pyruvate, non-essential amino acids, epidermal growth factor, ITS (insulin, transferrin, selenium), and penicillin/streptomycin. […] Transepithelial electrical resistance (TEER) readings were conducted to test the quality of the cell monolayer on the Transwell membrane. […]

[2] = Intravenous and intraduodenal bioavailability of zanamivir from three formulations (Example 5); conditions: for C0: extrapolated to t = 0; for concentration at 0.25 hr / concentration at 0.5 hr / concentration at 0.83 hr / concentration at 1 hr / concentration at 1.5 hr / concentration at 2 hr / concentration at 0.033 hr / concentration at 0.083 hr: 1.5 mg/animal, Plasma concentration; for clearance: CL; for Vd: Vss
Source text: as §1
as §2, with “Intraduodenal doses composed of 1.5 mg of zanamivir and varying amounts of an enhancer (glycerol or Capmul MCM L8) were injected directly into the duodenum via the IDC. Intravenous” for “Intravenous”
as §3
Dosing solution samples were assayed by LC-MS/MS using electrospray ionization. The chromatographic system consisted of Perkin Elmer series 200 micropumps and autosampler equipped with a Waters Atlantic® HILIC Silica 3 μM, 2.1×50 mm column. The mass spectrometer was a PE Sciex API 4000 with electrospray interface in multiple reaction monitoring mode. […] Stock solutions (1 mg/mL zanamivir) were prepared in water. Standards (eight concentrations) were prepared in the appropriate matched matrix (HBSSg or Sprague-Dawley rat plasma containing sodium heparin) and diluted 50-fold with methanol. Experimental samples were treated identically.
Standards and samples were prepared in Sprague Dawley rat plasma containing sodium heparin as an anticoagulant. An eight-point calibration curve was prepared at concentrations of 1000, 750, 500, 250, 100, 50, 25, and 10 ng/mL by serial dilution. Standard samples were treated identically to the study samples.
Plasma samples were extracted by protein precipitation in methanol.
In this example, the bioavailability of Zanamivir was evaluated after intravenous and intraduodenal doses in male Sprague-Dawley rats. The test compound was dosed at 1.5 mg/animal through intravenous and intraduodenal routes from different formulations. Plasma levels were determined by LC-MS/MS analysis. Pharmacokinetic parameters were estimated by a non-compartmental model using WinNonlin v4.1 software.

[3] = IV 1.5 mg/animal, Normal Saline, Ex.5, individual rats
[4] = male, Sprague-Dawley, rat, in vivo, ID 1.5 mg/animal, Capmul MCM L8 50 µL, Ex.5, mean
[5] = male, Sprague-Dawley, rat, in vivo, ID 1.5 mg/animal, Glycerol 50 µL, individual rats
[6] = male, Sprague-Dawley, rat, in vivo, ID 1.5 mg/animal, Glycerol 50 µL, mean
[7] = male, Sprague-Dawley, rat, in vivo, ID 1.5 mg/animal, PBS 50 µL, mean
[8] = male, Sprague-Dawley, rat, in vivo, ID 1.5 mg/animal, PBS 50 µL, individual rats
[9] = male, Sprague-Dawley, rat, in vivo, ID 1.5 mg/animal, PBS, 50 µL blank glycerol -2 hr, individual rats
[10] = male, Sprague-Dawley, rat, in vivo, ID 1.5 mg/animal, PBS, 50 µL blank glycerol -2 hr, mean
[11] = male, Sprague-Dawley, rat, in vivo, iv, 1.5 mg, IV 1.5 mg/animal, Normal Saline, Ex.5, individual rats
[12] = male, Sprague-Dawley, rat, in vivo, iv, 1.5 mg, IV 1.5 mg/animal, Normal Saline, Ex.5, mean
[13] = male, Sprague-Dawley, rat, in vivo, iv, IV 1.5 mg/animal, Normal Saline, Ex.5, individual rats
[14] = male, Sprague-Dawley, rat, in vivo, iv, IV 1.5 mg/animal, Normal Saline, Ex.5, mean

`CC(=O)NC1C(NC(=N)N)C=C(C(=O)O)OC1C(O)C(O)CO` (stereo not drawn) [Zanamivir, 5-acetamido-4-guanidino-6-(1,2,3-trihydroxypropyl)-5,6-dihydro-4H-pyran-2-carboxylic acid] gave a Tmax ([1]; 0.75 mg zanamivir in 50 µL Capmul MCM L8) of 4.8 min, a Tmax ([1]; 1.5 mg zanamivir in 50 µL Capmul MCM L8) of 4.8 min and a Tmax ([1]; 3.0 mg zanamivir in 50 µL Capmul MCM L8) of 8.4 min. For the same compound, the “increase in apparent permeability coefficient (Papp)” value (Caco-2 cell monolayers; optimized concentration of Capmul MCM L8 (0.25%)) was greater than 5 fold, the “increase in apparent permeability coefficient (Papp)” value (Caco-2 cell monolayers; optimized concentration of glycerol (5%)) was greater than 5 fold and the T1/2 ([2]; ID 1.5 mg/animal, Capmul MCM L8 50 µL, Ex.5, individual rats) was 27 min and 33 min. The t1/2 ([2]; ID 1.5 mg/animal, PBS, 50 µL blank glycerol -2 hr, individual rats) was 39.6 min and 110 min, the Plasma concentration ([2]; IV 1.5 mg/animal, Normal Saline, Ex.5, 0.083 hr, individual rats) was 17900 ng/mL and 16300 ng/mL and the C0 [2, 3] was 26943 ng/mL and 32278 ng/mL. The CL [2, 3] was 7.83 mL/min/kg and 8.67 mL/min/kg, the Vss [2, 3] was 0.26 L/kg and the t1/2 [2, 3] was 27.6 min. For the same compound, the half-life ([2]; male, Sprague-Dawley, rat, in vivo, 1.5 mg, T1/2, ID 1.5 mg/animal, Capmul MCM L8 50 µL, Ex.5, individual rats) was 28.2 min, the half-life ([2]; male, Sprague-Dawley, rat, in vivo, 1.5 mg, T1/2, ID 1.5 mg/animal, Capmul MCM L8 50 µL, Ex.5, mean) was 29.4 min and the half-life ([2]; male, Sprague-Dawley, rat, in vivo, 1.5 mg, t1/2, ID 1.5 mg/animal, Glycerol 50 µL, individual rats) was 17.4 min. The half-life ([2]; male, Sprague-Dawley, rat, in vivo, 1.5 mg, t1/2, ID 1.5 mg/animal, Glycerol 50 µL, mean) was 17.4 min, the half-life ([2]; male, Sprague-Dawley, rat, in vivo, 1.5 mg, t1/2, ID 1.5 mg/animal, PBS 50 µL, individual rats) was 49.8 min and the half-life ([2]; male, Sprague-Dawley, rat, in vivo, 1.5 mg, t1/2, ID 1.5 mg/animal, PBS 50 µL, mean) was 49.8 min. For the same compound, the half-life ([2]; male, Sprague-Dawley, rat, in vivo, 1.5 mg, t1/2, ID 1.5 mg/animal, PBS, 50 µL blank glycerol -2 hr, mean) was 74.4 min, the Tmax ([2]; male, Sprague-Dawley, rat, in vivo, 1.5 mg, ID 1.5 mg/animal, Glycerol 50 µL, mean) was 30 min and the Tmax ([2]; male, Sprague-Dawley, rat, in vivo, 1.5 mg, ID 1.5 mg/animal, PBS 50 µL, individual rats) was 30 min. The Tmax ([2]; male, Sprague-Dawley, rat, in vivo, 1.5 mg, ID 1.5 mg/animal, PBS 50 µL, mean) was 30 min, the Tmax ([2]; male, Sprague-Dawley, rat, in vivo, 1.5 mg, ID 1.5 mg/animal, PBS, 50 µL blank glycerol -2 hr, mean) was 34.8 min and the concentration at 0.25 hr [2, 4] was 4350 ng/mL. It also gave a concentration at 0.5 hr [2, 4] of 2910 ng/mL, a concentration at 0.83 hr [2, 4] of 7230 ng/mL and a concentration at 1 hr [2, 4] of 1080 ng/mL. The concentration at 1.5 hr [2, 4] was 578 ng/mL, the concentration at 2 hr [2, 4] was 274 ng/mL and the concentration at 0.25 hr [2, 5] was 1060 ng/mL. The concentration at 0.25 hr [2, 6] was 928 ng/mL, the concentration at 0.5 hr [2, 5] was 817 ng/mL and the concentration at 0.5 hr [2, 6] was 744 ng/mL. The concentration at 0.83 hr [2, 5] was 123 ng/mL, the concentration at 0.83 hr [2, 6] was 102 ng/mL and the concentration at 1 hr [2, 6] was 415 ng/mL. The concentration at 1.5 hr [2, 5] was 123 ng/mL, the concentration at 1.5 hr [2, 6] was 93 ng/mL and the concentration at 2 hr [2, 5] was 52.1 ng/mL. The concentration at 2 hr [2, 6] was 61 ng/mL, the concentration at 0.25 hr [2, 7] was 96 ng/mL and the concentration at 0.5 hr [2, 7] was 134 ng/mL. For the same compound, the concentration at 0.83 hr [2, 7] was 38.7 ng/mL, the concentration at 1 hr [2, 7] was 86.4 ng/mL and the concentration at 1.5 hr [2, 8] was 59.6 ng/mL. The concentration at 1.5 hr [2, 7] was 61.1 ng/mL, the concentration at 2 hr [2, 8] was 60.2 ng/mL and the concentration at 2 hr [2, 7] was 52.1 ng/mL. It also gave a concentration at 0.25 hr [2, 9] of 60.9 ng/mL, a concentration at 0.25 hr [2, 10] of 59.3 ng/mL and a concentration at 0.5 hr [2, 10] of 66.3 ng/mL. For the same compound, the concentration at 0.83 hr [2, 9] was 55.3 ng/mL, the concentration at 0.83 hr [2, 10] was 52.2 ng/mL and the concentration at 1 hr [2, 10] was 63.7 ng/mL. For the same compound, the concentration at 1.5 hr [2, 10] was 47.5 ng/mL, the concentration at 2 hr [2, 10] was 51.4 ng/mL and the bioavailability ([2]; male, Sprague-Dawley, rat, in vivo, inherent absolute bioavailability) was less than 2%. The C0 ([2]; male, Sprague-Dawley, rat, in vivo, iv, 1.5 mg, C0, IV 1.5 mg/animal, Normal Saline, Ex.5, individual rats) was 33400 ng/mL, the C0 ([2]; male, Sprague-Dawley, rat, in vivo, iv, 1.5 mg, C0, IV 1.5 mg/animal, Normal Saline, Ex.5, mean) was 30900 ± 3440 ng/mL and the clearance [2, 11] was 8.17 mL/min/kg. It also gave a clearance [2, 12] of 8.17 mL/min/kg, a Vd [2, 11] of 0.21 L/kg and a Vd [2, 12] of 0.24 ± 0.02 L/kg. For the same compound, the half-life ([2]; male, Sprague-Dawley, rat, in vivo, iv, 1.5 mg, t1/2, IV 1.5 mg/animal, Normal Saline, Ex.5, individual rats) was 30.6 min, the half-life ([2]; male, Sprague-Dawley, rat, in vivo, iv, 1.5 mg, t1/2, IV 1.5 mg/animal, Normal Saline, Ex.5, mean) was 29.4 ± 1.8 min and the Tmax [2, 11] was 0 min. The Tmax [2, 12] was 0 min, the concentration at 0.033 hr [2, 13] was 26900 ng/mL and the concentration at 0.033 hr [2, 14] was 24800 ng/mL. It also gave a concentration at 0.083 hr ([2]; male, Sprague-Dawley, rat, in vivo, iv, IV 1.5 mg/animal, Normal Saline, Ex.5, 0.083 hr, individual rats) of 19400 ng/mL, a concentration at 0.083 hr ([2]; male, Sprague-Dawley, rat, in vivo, iv, IV 1.5 mg/animal, Normal Saline, Ex.5, 0.083 hr, mean) of 17900 ng/mL and a concentration at 0.25 hr [2, 13] of 11700 ng/mL. For the same compound, the concentration at 0.25 hr [2, 14] was 11200 ng/mL, the concentration at 0.5 hr [2, 13] was 6610 ng/mL and the concentration at 0.5 hr [2, 14] was 6450 ng/mL. For the same compound, the concentration at 1 hr [2, 13] was 1650 ng/mL, the concentration at 1 hr [2, 14] was 2100 ng/mL and the concentration at 1.5 hr [2, 13] was 709 ng/mL. It also gave a concentration at 1.5 hr [2, 14] of 817 ng/mL, a concentration at 2 hr [2, 13] of 423 ng/mL and a concentration at 2 hr [2, 14] of 513 ng/mL.
